Where two headings read alike, the source gives them in different places.
Legend:
Test in all cases: Test E pre-/postemergence plant response
Assay type in all cases: in vivo
[1] = tested on: spring wheat (Triticum aestivum); details: scale 0 to 100, read-out: Plant response rating, Wheat, Spring; for plant injury at 16 g/ha: 16 g ai/ha; for plant injury at 62 g/ha: 62 g ai/ha; for plant injury at 125 g/ha: 125 g ai/ha
Procedure, shortened: (§1)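 Visual scores on a 0–100 scale (100 = complete control) were assigned against untreated controls 7–21 days after treatment in a controlled environment. Compounds, formulated with solvent plus surfactant, were applied to pre-emergence silt-loam sowings or to 1- to 4-leaf plants (2–18 cm) in potting medium.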

[2] = tested on: field poppy (Papaver rhoeas); details: scale 0 to 100, read-out: Plant response rating, Field Poppy; for pest or weed control at 16 g/ha: 16 g ai/ha; for pest or weed control at 31 g/ha: 31 g ai/ha; for pest or weed control at 62 g/ha: 62 g ai/ha; for pest or weed control at 125 g/ha: 125 g ai/ha
Procedure, shortened: as §1

[3] = tested on: deadnettle (henbit deadnettle, Lamium amplexicaule); details: scale 0 to 100, read-out: Plant response rating, Deadnettle; for pest or weed control at 16 g/ha: 16 g ai/ha; for pest or weed control at 31 g/ha: 31 g ai/ha; for pest or weed control at 62 g/ha: 62 g ai/ha; for pest or weed control at 125 g/ha: 125 g ai/ha
Procedure, shortened: as §1

wild oat (Avena fatua) = details: scale 0 to 100, read-out: Plant response rating, Oat, Wild; for pest or weed control at 16 g/ha: 16 g ai/ha; for pest or weed control at 31 g/ha: 31 g ai/ha; for pest or weed control at 62 g/ha: 62 g ai/ha; for pest or weed control at 125 g/ha: 125 g ai/ha
Procedure, shortened: as §1

[4] = tested on: canarygrass (Phalaris minor); details: scale 0 to 100, read-out: Plant response rating, Canarygrass; for pest or weed control at 16 g/ha: 16 g ai/ha; for pest or weed control at 31 g/ha: 31 g ai/ha; for pest or weed control at 62 g/ha: 62 g ai/ha; for pest or weed control at 125 g/ha: 125 g ai/ha
Procedure, shortened: as §1

[5] = tested on: field violet (Viola arvensis); details: scale 0 to 100, read-out: Plant response rating, Field Violet; for pest or weed control at 16 g/ha: 16 g ai/ha; for pest or weed control at 31 g/ha: 31 g ai/ha; for pest or weed control at 62 g/ha: 62 g ai/ha; for pest or weed control at 125 g/ha: 125 g ai/ha
Procedure, shortened: as §1

[6] = tested on: spring barley (Hordeum vulgare); details: for plant injury at 16 g/ha: 16 g ai/ha; for plant injury at 31 g/ha: 31 g ai/ha; for plant injury at 62 g/ha: 62 g ai/ha; for plant injury at 125 g/ha: 125 g ai/ha
Procedure, shortened: as §1

[7] = tested on: lambsquarters (Chenopodium album); details: scale 0 to 100, read-out: Plant response rating, Lambsquarters; for pest or weed control at 16 g/ha: 16 g ai/ha; for pest or weed control at 31 g/ha: 31 g ai/ha; for pest or weed control at 62 g/ha: 62 g ai/ha; for pest or weed control at 125 g/ha: 125 g ai/ha
Procedure, shortened: as §1

[8] = tested on: blackgrass (Alopecurus myosuroides); details: scale 0 to 100, read-out: Plant response rating, Blackgrass; for pest or weed control at 16 g/ha: 16 g ai/ha; for pest or weed control at 31 g/ha: 31 g ai/ha; for pest or weed control at 62 g/ha: 62 g ai/ha; for pest or weed control at 125 g/ha: 125 g ai/ha
Procedure, shortened: as §1

[9] = tested on: winter wheat (Triticum aestivum); details: scale 0 to 100, read-out: Plant response rating, Wheat, Winter; for plant injury at 16 g/ha: 16 g ai/ha; for plant injury at 62 g/ha: 62 g ai/ha; for plant injury at 125 g/ha: 125 g ai/ha
Procedure, shortened: as §1

[10] = tested on: speedwell (bird's-eye speedwell, Veronica persica); details: scale 0 to 100, read-out: Plant response rating, Speedwell; for pest or weed control at 16 g/ha: 16 g ai/ha; for pest or weed control at 62 g/ha: 62 g ai/ha; for pest or weed control at 125 g/ha: 125 g ai/ha
Procedure, shortened: as §1

[11] = post-emergence, 31 g ai/ha, Postemergence
[12] = post-emergence, Postemergence, scale 0 to 100, read-out: Plant response rating, Barley, Spring
[13] = pre-emergence, Preemergence, scale 0 to 100, read-out: Plant response rating, Barley, Spring

## Fc1cccc(Oc2ncc(Cl)cn2)c1-c1cc(C(F)(F)F)on1 [Compound 168, 5-chloro-2-[2-[5-(trifluoromethyl)-3-isoxazolyl]-3-fluorophenoxy]pyrimidine]
[1]; post-emergence, Postemergence
  plant injury at 16 g/ha: 10%
  plant injury at 62 g/ha: 25%
  plant injury at 125 g/ha: 40%
[1]; [11]
  plant injury at 31 g/ha: 20%
[1]; pre-emergence, Preemergence
  plant injury at 16 g/ha: 15%
  plant injury at 62 g/ha: 20%
  plant injury at 125 g/ha: 30%
[2]; post-emergence, Postemergence
  pest or weed control at 16 g/ha: 55%
  pest or weed control at 31 g/ha: 85%
  pest or weed control at 62 g/ha: 100%
  pest or weed control at 125 g/ha: 100%
[2]; pre-emergence, Preemergence
  pest or weed control at 16 g/ha: 80%
  pest or weed control at 31 g/ha: 100%
  pest or weed control at 62 g/ha: 100%
  pest or weed control at 125 g/ha: 100%
[3]; post-emergence, Postemergence
  pest or weed control at 16 g/ha: 20%
  pest or weed control at 31 g/ha: 55%
  pest or weed control at 62 g/ha: 75%
  pest or weed control at 125 g/ha: 80%
[3]; pre-emergence, Preemergence
  pest or weed control at 16 g/ha: 10%
  pest or weed control at 31 g/ha: 50%
  pest or weed control at 62 g/ha: 80%
  pest or weed control at 125 g/ha: 100%
Wild oat (Avena fatua); post-emergence, Postemergence
  pest or weed control at 16 g/ha: 5%
  pest or weed control at 31 g/ha: 10%
  pest or weed control at 62 g/ha: 40%
  pest or weed control at 125 g/ha: 65%
Wild oat (Avena fatua); pre-emergence, Preemergence
  pest or weed control at 16 g/ha: 10%
  pest or weed control at 31 g/ha: 10%
  pest or weed control at 62 g/ha: 35%
  pest or weed control at 125 g/ha: 50%
[4]; post-emergence, Postemergence
  pest or weed control at 16 g/ha: 15%
  pest or weed control at 31 g/ha: 15%
  pest or weed control at 62 g/ha: 25%
  pest or weed control at 125 g/ha: 55%
[4]; pre-emergence, Preemergence
  pest or weed control at 16 g/ha: 15%
  pest or weed control at 31 g/ha: 15%
  pest or weed control at 62 g/ha: 100%
  pest or weed control at 125 g/ha: 100%
[5]; post-emergence, Postemergence
  pest or weed control at 16 g/ha: 75%
  pest or weed control at 31 g/ha: 75%
  pest or weed control at 62 g/ha: 90%
  pest or weed control at 125 g/ha: 95%
[5]; pre-emergence, Preemergence
  pest or weed control at 16 g/ha: 85%
  pest or weed control at 31 g/ha: 100%
  pest or weed control at 62 g/ha: 100%
  pest or weed control at 125 g/ha: 100%
[6]; [12]
  plant injury at 16 g/ha: 10%
  plant injury at 31 g/ha: 15%
  plant injury at 62 g/ha: 15%
[6]; post-emergence, Postemergence, scale 0 to 100 (0 no effect, 100 complete control), read-out: Plant response rating, Barley, Spring
  plant injury at 125 g/ha: 25%
[6]; [13]
  plant injury at 16 g/ha: 0%
  plant injury at 31 g/ha: 15%
  plant injury at 62 g/ha: 30%
  plant injury at 125 g/ha: 35%
[7]; post-emergence, Postemergence
  pest or weed control at 16 g/ha: 75%
  pest or weed control at 31 g/ha: 85%
  pest or weed control at 62 g/ha: 90%
  pest or weed control at 125 g/ha: 95%
[7]; pre-emergence, Preemergence
  pest or weed control at 16 g/ha: 45%
  pest or weed control at 31 g/ha: 100%
  pest or weed control at 62 g/ha: 100%
  pest or weed control at 125 g/ha: 100%
[8]; post-emergence, Postemergence
  pest or weed control at 16 g/ha: 15%
  pest or weed control at 31 g/ha: 25%
  pest or weed control at 62 g/ha: 35%
  pest or weed control at 125 g/ha: 60%
[8]; pre-emergence, Preemergence
  pest or weed control at 16 g/ha: 10%
  pest or weed control at 31 g/ha: 35%
  pest or weed control at 62 g/ha: 100%
  pest or weed control at 125 g/ha: 100%
[9]; post-emergence, Postemergence
  plant injury at 16 g/ha: 5%
  plant injury at 62 g/ha: 25%
  plant injury at 125 g/ha: 35%
[9]; [11]
  plant injury at 31 g/ha: 10%
[9]; pre-emergence, Preemergence
  plant injury at 16 g/ha: 5%
  plant injury at 62 g/ha: 10%
  plant injury at 125 g/ha: 30%
[10]; post-emergence, Postemergence
  pest or weed control at 16 g/ha: 80%
  pest or weed control at 62 g/ha: 90%
  pest or weed control at 125 g/ha: 100%
[10]; [11]
  pest or weed control at 31 g/ha: 75%
[10]; pre-emergence, Preemergence
  pest or weed control at 16 g/ha: 100%
  pest or weed control at 62 g/ha: 100%
  pest or weed control at 125 g/ha: 100%
